Measured values published in patent US6114302A, “Fragrance pro-accords” (The Procter & Gamble Company, priority 1999, dated 2000).

Experiment: Fragrance Release Half-life (hydrolysis kinetics of pro-accord monitored by HPLC)
Type: physicochemical
Settings: 90/10 dioxane/phosphate buffered water, buffer pH approximately 2.5, HPLC at 30° C.
Procedure: For the purposes of the present invention the pro-accords generally have a "Fragrance Release Half-life" of less than or equal to 12 hours when measured in NaH2 PO4 buffer at pH 2.5 and greater than or equal to 0.1 hour when measured in NaH2 PO4 buffer at pH 5.3. The "Fragrance Release Half-life" is defined herein as follows.
The rate at which the accord is released is defined by the formula: […]
and can be further expressed by the formula: [formula] wherein k is the release rate constant and [Pro-accord] is the concentration of pro-accord. For the purposes of the present invention the "Fragrance Release Half-life", t1/2, is related to the release rate constant by the formula: [formula] and this relationship is used for the purposes of the present invention to determine the "fragrance Release Half-life" (FRHL).
Due to the hydrophobic nature of some pro-accords, it is necessary to conduct the determination of t1/2 and k in a mixture of 90/10 dioxane/phosphate buffered water. […] Next 10 mL of the phosphate buffer is admixed with 90 mL of dioxane and the pro-fragrance to be analyzed is added. The hydrolysis kinetics are then monitored by conventional HPLC at 30° C. […]
*t1/2 for the purposes of the present invention is measured in […]

## c1ccc(CCOC(OCCc2ccccc2)(OCCc2ccccc2)OCCc2ccccc2)cc1 [tetrakis(phenylethyl) orthocarbonate, Tetrakis(phenylethyl) Orthocarbonate]
  t1/2 (Fragrance Release Half-life): 4.8 h

## c1ccc(CCOC(OCCc2ccccc2)OCCc2ccccc2)cc1 [tris(phenylethyl) orthoformate, Tris(phenylethyl) Orthoformate]
  t1/2 (Fragrance Release Half-life): 5.9 h
